Data from patent US20180244611A1, “Modulators of the Cystic Fibrosis Transmembrane Conductance Regulator Protein and Methods of Use” (AbbVie S.à.r.l., priority 2017, published 2018).

What was measured:
[1] = target: T1, F508delCFTR (Homo sapiens, UniProt P13569, DEL508-508); test: Cell Surface Expression-Horse Radish Peroxidase (CSE-HRP) assay, test compound with co-corrector; assay type: cell-based; settings: with 2 μM co-corrector; for Maximum % activity (with co-corrector): maximum at any tested concentration, normalized to positive control;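 on Maximum % activity (with co-corrector): percent of 2 µM positive control corrector over DMSO; co-corrector is that same compound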
T1 construct: expressed in transfected cells; host or cells: CFBE41o- human lung-derived epithelial cells (CFBE41o-F508delCFTR-HRP), doxycycline-inducible
T1 sequence (P13569 with tags, fused parts or gaps DEL508-508): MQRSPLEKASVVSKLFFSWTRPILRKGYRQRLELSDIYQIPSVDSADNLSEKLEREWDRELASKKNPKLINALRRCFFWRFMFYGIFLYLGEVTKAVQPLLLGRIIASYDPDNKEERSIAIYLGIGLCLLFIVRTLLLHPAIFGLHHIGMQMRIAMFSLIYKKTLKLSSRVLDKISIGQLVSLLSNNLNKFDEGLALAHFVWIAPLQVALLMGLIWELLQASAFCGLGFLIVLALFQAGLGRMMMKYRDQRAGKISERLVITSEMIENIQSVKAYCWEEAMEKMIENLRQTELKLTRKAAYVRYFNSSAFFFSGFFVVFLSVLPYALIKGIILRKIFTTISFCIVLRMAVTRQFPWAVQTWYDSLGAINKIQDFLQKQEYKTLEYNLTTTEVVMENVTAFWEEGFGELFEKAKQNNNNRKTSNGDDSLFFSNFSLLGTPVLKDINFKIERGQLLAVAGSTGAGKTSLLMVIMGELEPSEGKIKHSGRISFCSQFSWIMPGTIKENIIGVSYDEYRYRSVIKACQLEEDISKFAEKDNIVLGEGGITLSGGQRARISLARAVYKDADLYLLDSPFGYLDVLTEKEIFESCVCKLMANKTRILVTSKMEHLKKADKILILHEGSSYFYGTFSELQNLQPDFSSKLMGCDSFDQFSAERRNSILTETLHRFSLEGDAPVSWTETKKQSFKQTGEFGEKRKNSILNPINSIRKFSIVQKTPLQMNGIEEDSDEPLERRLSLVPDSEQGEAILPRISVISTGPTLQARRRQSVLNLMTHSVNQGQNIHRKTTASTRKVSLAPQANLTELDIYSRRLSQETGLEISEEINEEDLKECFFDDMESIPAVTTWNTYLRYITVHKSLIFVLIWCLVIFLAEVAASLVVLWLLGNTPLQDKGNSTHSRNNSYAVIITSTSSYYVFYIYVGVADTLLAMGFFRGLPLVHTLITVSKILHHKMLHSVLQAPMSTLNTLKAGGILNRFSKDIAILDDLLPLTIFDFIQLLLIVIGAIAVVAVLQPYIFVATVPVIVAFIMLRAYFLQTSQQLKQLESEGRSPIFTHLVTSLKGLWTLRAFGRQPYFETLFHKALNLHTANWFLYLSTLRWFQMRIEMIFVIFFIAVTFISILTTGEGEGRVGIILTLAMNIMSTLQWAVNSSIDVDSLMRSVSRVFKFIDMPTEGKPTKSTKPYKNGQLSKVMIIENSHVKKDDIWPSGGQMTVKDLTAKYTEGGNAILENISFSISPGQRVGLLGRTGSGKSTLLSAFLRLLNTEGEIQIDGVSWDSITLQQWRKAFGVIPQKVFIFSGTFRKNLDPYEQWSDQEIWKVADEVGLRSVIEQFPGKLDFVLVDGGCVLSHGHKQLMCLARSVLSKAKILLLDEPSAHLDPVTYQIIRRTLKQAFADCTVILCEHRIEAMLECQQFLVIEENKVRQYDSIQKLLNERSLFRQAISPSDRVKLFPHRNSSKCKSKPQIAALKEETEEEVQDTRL
Experimental: (§1) Cell Surface Expression-Horse Radish Peroxidase (CSE-HRP) Assay
(§2) A cellular assay for measuring the F508delCFTR cell surface expression after correction with test compounds either without or with a co-corrector (2 μM of 3-[(2R,4R)-4-({[1-(2,2-difluoro-1,3-benzodioxol-5-yl)cyclopropyl]carbonyl}amino)-7-methoxy-3,4-dihydro-2H-chromen-2-yl]benzoic acid), was developed in human lung derived epithelial cell line (CFBE41o-) (Veit G et al, (2012) Mol Biol Cell. 23(21): 4188-4202). The development was achieved by expressing the F508delCFTR mutation along with a horseradish peroxidase (HRP) in the fourth exofacial loop, and then measuring the HRP activity using luminescence readout from these cells, CFBE41o-F508delCFTR-HRP, that were incubated overnight with the test corrector compounds, either without or with the co-corrector. For this primary assay, the CFBE41o-F508delCFTR-HRP cells were plated in 384-well plates (Greiner Bio-one; Cat 781080) at 4,000 cells/well along with 0.5 μg/mL doxycycline to induce the F508delCFTR-HRP expression and further incubated at 37° C., 5% CO2 for 72 hours. The test compounds were then added either without or with a co-corrector at the required concentrations and further incubated for 18-24 hours at 33° C. The highest concentration tested was 20 μM with an 8-point concentration response curve using a 3-fold dilution in both the test compound without or with the co-corrector. Three replicate plates were run to determine one EC50. All plates contained negative controls (dimethyl sulfoxide, DMSO) and positive control (2 μM of 3-[(2R,4R)-4-({[1-(2,2-difluoro-1,3-benzodioxol-5-yl)cyclopropyl]carbonyl}amino)-7-methoxy-3,4-dihydro-2H-chromen-2-yl]benzoic acid) as well as on-plate concentration response of the positive control. Post incubation, the plates were washed 5× times with Dulbecco's phosphate buffered saline (DPBS), followed by the addition of the HRP substrate, luminol (50 μL), and measuring the HRP activity using luminescence readout on EnVision® Multilabel Plate Reader (Perkin Elmer; product number 2104-0010). The raw counts from the experiment were analyzed using Accelrys® Assay Explorer v3.3.
(§3) Z′ greater than 0.5 was used as passing quality control criteria for the plates.
(§4) 1−[3*SDPositive Control+3*SDNegative Control/Absolute (MeanPositive Control−MeanNegative Control)]
(§5) wherein “SD” is standard deviation.
(§6) The % activity measured at each of the 8 test concentrations of the test compound added either without or with a co-corrector (2 μM of 3-[(2R,4R)-4-({[1-(2,2-difluoro-1,3-benzodioxol-5-yl)cyclopropyl]carbonyl}amino)-7-methoxy-3,4-dihydro-2H-chromen-2-yl]benzoic acid) was normalized to the on-plate positive control using the following formulae:
activity (Test compound with co-corrector)=[(test compound with co-corrector response−DMSO response)/(positive control response−DMSO response)]*100
(§7) The maximum % activity achieved for the test compound either without or with a co-corrector at any tested concentration is presented in Table 1 along with the respective EC50's calculated using the following general sigmoidal curve with variable Hill slope equation (described as Model 42 in the Accelrys® Assay Explorer v3.3 software):
(§8) General sigmoidal curve with concentration, response, top, bottom, EC50 and Hill slope. This model describes a sigmoidal curve with an adjustable baseline, a. The equation can be used to fit curves where response is either increasing or decreasing with respect to the independent variable, “x”.
“x” is a concentration of drug under test. “y” is the response. “a” is the maximum response, and “d” is the minimum response “c” is the inflection point (EC50) for the curve. That is, “y” is halfway between the lower and upper asymptotes when x=c. “b” is the slope-factor or Hill coefficient. The sign of b is positive when the response increases with increasing dose and is negative when the response decreases with increasing dose (inhibition).

[2] = target: T1, F508delCFTR; test: Cell Surface Expression-Horse Radish Peroxidase (CSE-HRP) assay, test compound without co-corrector; assay type: cell-based; settings: for Emax: maximum at any tested concentration, normalized to positive control, without co-corrector; for EC50: test compound without co-corrector;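 on Emax: percent of on-plate 2 µM positive control corrector response over DMSO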
Experimental: as §1, §2, §3, §4, §5, §6
% activity (Test compound without co-corrector)=[(test compound without co-corrector response−DMSO response)/(positive control response−DMSO response)]*100%
as §7, §8
“x” is a concentration of drug under test. “y” is the response. “a” is the maximum response, and “d” is the minimum response “c” is the inflection point (EC50) for the curve. That is, “y” is halfway between the lower and upper asymptotes when x=c. “b” is the slope-factor or Hill coefficient. The sign of b is positive when the response increases with increasing dose and is negative when the response decreases with increasing dose (inhibition). The data is presented with the qualifiers shown below: […]

| SMILES | Maximum % activity (with co-corrector) [1] | EC50 [1] | Emax [2] | EC50 [2] |
| --- | --- | --- | --- | --- |
| COc1cccc2c1CCCC2(Cc1ccccc1)C(=O)NS(=O)(=O)c1cccc2ccccc12 (stereo not shown) [Example I-9, 1-benzyl-5-methoxy-N-(naphthalene-1-sulfonyl)-1,2,3,4-tetrahydronaphthalene-1-carboxamide] | +++ (≥350) | < 3 µM | ≥ 150% | < 3 µM |
| CCC1(C(=O)NS(=O)(=O)c2cccc3ccccc23)CCCc2c(OC)cccc21 (stereo not shown) [Example I-10, 1-ethyl-5-methoxy-N-(naphthalene-1-sulfonyl)-1,2,3,4-tetrahydronaphthalene-1-carboxamide] | +++ (≥350) | < 3 µM | ≥ 150% | 3 to 10 µM |
| O=C(NS(=O)(=O)c1cccc2ccccc12)[C@@H]1CCCc2cccc(Cl)c21 [Example I-11, (1R)-8-chloro-N-(naphthalene-1-sulfonyl)-1,2,3,4-tetrahydronaphthalene-1-carboxamide] | +++ (≥350) | < 3 µM | ≥ 150% | < 3 µM |
| O=C(NS(=O)(=O)c1cccc2ccccc12)[C@H]1CCCc2cccc(Cl)c21 [Example I-12, (1S)-8-chloro-N-(naphthalene-1-sulfonyl)-1,2,3,4-tetrahydronaphthalene-1-carboxamide] | +++ (≥350) | < 3 µM | ≥ 150% | 3 to 10 µM |
| CCC1(C(=O)NS(=O)(=O)c2cccc3c2OC(F)(F)O3)CCc2c(Cl)cccc21 (stereo not shown) [Example I-13, 4-chloro-N-(2,2-difluoro-2H-1,3-benzodioxole-4-sulfonyl)-1-ethyl-2,3-dihydro-1H-indene-1-carboxamide] | ++ (≥150 and <350) | < 3 µM | < 50% | ≥ 10 µM |
| CC1(C(=O)NS(=O)(=O)c2cccc3ccccc23)CCc2cccc(Cl)c21 (stereo not shown) [Example I-14, 7-chloro-1-methyl-N-(naphthalene-1-sulfonyl)-2,3-dihydro-1H-indene-1-carboxamide] | +++ (≥350) | < 3 µM | ≥ 150% | < 3 µM |
| COc1ccc(Br)c2c1CCCC2C(=O)NS(=O)(=O)c1cccc2ccccc12 (stereo not shown) [Example I-15, 8-bromo-5-methoxy-N-(naphthalene-1-sulfonyl)-1,2,3,4-tetrahydronaphthalene-1-carboxamide] | +++ (≥350) | < 3 µM | ≥ 150% | < 3 µM |
| O=C(NS(=O)(=O)c1cccc2ccccc12)C1(CCN2CCC(F)(F)C2)CCc2c(Cl)cccc21 (stereo not shown) [Example I-16, 4-chloro-1-[2-(3,3-difluoropyrrolidin-1-yl)ethyl]-N-(naphthalene-1-sulfonyl)-2,3-dihydro-1H-indene-1-carboxamide] | +++ (≥350) | < 3 µM | 50 to 150% | < 3 µM |
| CC[C@]1(C(=O)NS(=O)(=O)c2cccc3ccccc23)CCc2c(Cl)cccc21 [Example I-17, (1S)-4-chloro-1-ethyl-N-(naphthalene-1-sulfonyl)-2,3-dihydro-1H-indene-1-carboxamide] | +++ (≥350) | < 3 µM | 50 to 150% | < 3 µM |
| CC[C@@]1(C(=O)NS(=O)(=O)c2cccc3ccccc23)CCc2c(Cl)cccc21 [Example I-18, (1R)-4-chloro-1-ethyl-N-(naphthalene-1-sulfonyl)-2,3-dihydro-1H-indene-1-carboxamide] | +++ (≥350) | < 3 µM | ≥ 150% | < 3 µM |
| COc1ccc(Br)c2c1C(C(=O)NS(=O)(=O)c1cccc3ccccc13)CC2 (stereo not shown) [Example I-19, 4-bromo-7-methoxy-N-(naphthalene-1-sulfonyl)-2,3-dihydro-1H-indene-1-carboxamide] | +++ (≥350) | < 3 µM | ≥ 150% | 3 to 10 µM |
| C[C@]1(C(=O)NS(=O)(=O)c2cccc3ccccc23)CCc2c1ccc1c2OCO1 [Example I-20, (6S)-6-methyl-N-(naphthalene-1-sulfonyl)-7,8-dihydro-2H,6H-indeno[4,5-d][1,3]dioxole-6-carboxamide] | +++ (≥350) | 3 to 10 µM | ≥ 150% | 3 to 10 µM |
| C[C@@]1(C(=O)NS(=O)(=O)c2cccc3ccccc23)CCc2c1ccc1c2OCO1 [Example I-21, (6R)-6-methyl-N-(naphthalene-1-sulfonyl)-7,8-dihydro-2H,6H-indeno[4,5-d][1,3]dioxole-6-carboxamide] | +++ (≥350) | 3 to 10 µM | ≥ 150% | 3 to 10 µM |
| COc1ccc2c(c1)[C@@](C)(C(=O)NS(=O)(=O)c1cccc3ccccc13)CC2 [Example I-22, (1S)-6-methoxy-1-methyl-N-(naphthalene-1-sulfonyl)-2,3-dihydro-1H-indene-1-carboxamide] | +++ (≥350) | < 3 µM | ≥ 150% | 3 to 10 µM |
| COc1ccc2c(c1)[C@](C)(C(=O)NS(=O)(=O)c1cccc3ccccc13)CC2 [Example I-23, (1R)-6-methoxy-1-methyl-N-(naphthalene-1-sulfonyl)-2,3-dihydro-1H-indene-1-carboxamide] | +++ (≥350) | < 3 µM | ≥ 150% | 3 to 10 µM |
| O=C(NS(=O)(=O)c1cccc2ccccc12)C1CCCc2c1ccc1c2OCO1 (stereo not shown) [Example I-24, N-(naphthalene-1-sulfonyl)-6,7,8,9-tetrahydro-2H-naphtho[1,2-d][1,3]dioxole-6-carboxamide] | +++ (≥350) | < 3 µM | ≥ 150% | 3 to 10 µM |
| C[C@@]1(C(=O)NS(=O)(=O)c2cccc3ccccc23)CCc2cccc(Cl)c21 [Example I-27, (1R)-7-chloro-1-methyl-N-(naphthalene-1-sulfonyl)-2,3-dihydro-1H-indene-1-carboxamide] | +++ (≥350) | < 3 µM | ≥ 150% | < 3 µM |
| CCC1(C(=O)NS(=O)(=O)c2cccc3ccccc23)CCc2c(Br)ccc(OC)c21 (stereo not shown) [Example I-28, 4-bromo-1-ethyl-7-methoxy-N-(naphthalene-1-sulfonyl)-2,3-dihydro-1H-indene-1-carboxamide] | +++ (≥350) | < 3 µM | ≥ 150% | < 3 µM |
| O=C(NS(=O)(=O)c1cccc2ccccc12)C1(CC2CC2)CCc2c(Cl)cccc21 (stereo not shown) [Example I-29, 4-chloro-1-(cyclopropylmethyl)-N-(naphthalene-1-sulfonyl)-2,3-dihydro-1H-indene-1-carboxamide] | +++ (≥350) | < 3 µM | ≥ 150% | < 3 µM |
